From ChEMBL document CHEMBL1129782, “Azole phenoxy hydroxyureas as selective and orally active inhibitors of 5-lipoxygenase” (J Med Chem, 1996)

How the values were obtained:
Cavia porcellus [1] = experiment: Intravenous effective dose against antigen induced bronchoconstriction in the guinea pig; type: functional
Homo sapiens [2] = species: Homo sapiens; experiment: Inhibition of LTB4 biosynthesis at 1 uM, in calcium ionophore-stimulated human whole blood leukocyte (HBL) assay.; type: functional
[3] = target: T1, Polyunsaturated fatty acid 5-lipoxygenase (Rattus norvegicus) (UniProt P12527); experiment: Activity against LTB4 biosynthesis in the rat RPAR pleurisy model po (10 mg/kg); type: functional, organism-based
T1 sequence (whole entry): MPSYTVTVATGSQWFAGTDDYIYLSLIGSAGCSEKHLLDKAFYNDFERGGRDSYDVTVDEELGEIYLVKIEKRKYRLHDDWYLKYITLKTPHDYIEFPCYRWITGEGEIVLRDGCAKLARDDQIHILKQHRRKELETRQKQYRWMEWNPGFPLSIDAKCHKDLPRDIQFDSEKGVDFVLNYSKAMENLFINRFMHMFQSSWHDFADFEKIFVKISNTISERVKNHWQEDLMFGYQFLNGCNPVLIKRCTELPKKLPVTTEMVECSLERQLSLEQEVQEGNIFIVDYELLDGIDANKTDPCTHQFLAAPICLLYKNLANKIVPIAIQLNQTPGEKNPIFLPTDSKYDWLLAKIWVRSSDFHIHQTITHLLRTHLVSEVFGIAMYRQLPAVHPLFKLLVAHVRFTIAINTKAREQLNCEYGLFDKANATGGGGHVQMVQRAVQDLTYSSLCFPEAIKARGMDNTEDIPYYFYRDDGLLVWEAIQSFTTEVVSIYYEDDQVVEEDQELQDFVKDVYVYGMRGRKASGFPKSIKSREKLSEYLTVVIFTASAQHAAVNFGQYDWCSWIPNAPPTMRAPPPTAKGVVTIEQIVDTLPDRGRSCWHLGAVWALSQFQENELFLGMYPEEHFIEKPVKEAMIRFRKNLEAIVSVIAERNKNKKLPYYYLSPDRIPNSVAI

[4] = target: T1, Polyunsaturated fatty acid 5-lipoxygenase (Rattus norvegicus); experiment: Ex vivo inhibitory activity at an peroral dose of 10 mg/Kg against LTB4 biosynthesis in rat blood, after pretreatment period of 6 hr; type: functional
Homo sapiens [5] = species: Homo sapiens; experiment: Compound at 10 uM was tested in vitro for the inhibition of LTB4 biosynthesis in calcium ionophore-stimulated human whole blood leukocyte (HBL) assay; type: functional
Rattus norvegicus [6] = experiment: Activity against LTB4 biosynthesis in the rat RPAR pleurisy model po (25 mg/kg); type: functional
[7] = target: T1, Polyunsaturated fatty acid 5-lipoxygenase (Rattus norvegicus); experiment: Ex vivo inhibitory activity at an peroral dose of 10 mg/Kg against LTB4 biosynthesis in rat blood, after pretreatment period of 3h; type: functional
Rattus norvegicus [8] = experiment: Ex vivo inhibitory activity at an peroral dose of 5 mg/Kg against LTB4 biosynthesis in rat blood, after pretreatment period of 6 hr; type: functional; settings: po
Rattus norvegicus [9] = experiment: Ex vivo inhibitory activity at an peroral dose of 25 mg/Kg against LTB4 biosynthesis in rat blood, after pretreatment period of 3h; type: functional; settings: po
Homo sapiens [10] = species: Homo sapiens; experiment: In vitro inhibitory concentration against LTB4 biosynthesis in calcium ionophore-stimulated human whole blood leukocyte (HBL) assay; type: functional
Rattus norvegicus [11] = species: Rattus norvegicus; experiment: Ex vivo oral effective dose against LTB4 biosynthesis in rat blood, after pretreatment period of 3h; type: functional
Rattus norvegicus [12] = species: Rattus norvegicus; experiment: Oral effective dose against LTB4 biosynthesis in the rat RPAR pleurisy model; type: functional
Cavia porcellus [13] = species: Cavia porcellus; experiment: Oral effective dose against antigen induced bronchoconstriction in the guinea pig; type: functional
Rattus norvegicus [14] = experiment: Ex vivo inhibitory activity at an peroral dose of 1 mg/Kg against LTB4 biosynthesis in rat blood, after pretreatment period of 6 hr; type: functional; settings: po
Cavia porcellus [15] = experiment: Intravenous effective dose against antigen induced bronchoconstriction in guinea pig; type: functional

Row | Structure (SMILES) | inhibition [4] [%] | inhibition at 1 µM (Homo sapiens [2]) [%] | other results
1 | COc1cc(CN(O)C(N)=O)ccc1OCc1nc(-c2ccccc2)oc1C |  | 19 | inhibition at 10 µM (Homo sapiens [5]): 81%
2 | Cc1oc(-c2ccccc2)nc1CCOc1ccc(CN(O)C(N)=O)cc1F |  | 71 | Inhibition (Rattus norvegicus [6]): 58%; inhibition [7]: 52%
3 | Cc1oc(-c2ccc(C(F)(F)F)cc2)nc1COc1cccc(CN(O)C(N)=O)c1 |  | 48 | inhibition in vivo at 5 mg/kg (Rattus norvegicus [8]): 55%; inhibition [3]: 59%
4 | Cc1oc(-c2cccs2)nc1CCOc1ccc(CN(O)C(N)=O)cc1 |  | 64 | inhibition [7]: 24%
5 | Cc1oc(-c2ccccc2)nc1COc1ccc(CN(O)C(N)=O)cc1Cl |  | 31 | inhibition [7]: 69%
6 | Cc1oc(-c2ccc(C(F)(F)F)cc2)nc1COc1ccc(CN(O)C(N)=O)cc1 |  | 34 | inhibition in vivo at 5 mg/kg (Rattus norvegicus [8]): 69%; inhibition [3]: 45%
7 | Cc1oc(-c2cccc3ccccc23)nc1CCOc1ccc(CN(O)C(N)=O)cc1 |  | 42 | 
8 | Cc1oc(-c2ccccc2)nc1CCOc1ccc(C(C)N(O)C(N)=O)cc1 (configuration not stated) |  | 0 | inhibition in vivo at 25 mg/kg (Rattus norvegicus [9]): 57%; inhibition at 10 µM (Homo sapiens [5]): 60%
9 | COc1cc(CN(O)C(N)=O)cc(OCc2nc(-c3ccc(C(F)(F)F)cc3)oc2C)c1 |  | 0 | inhibition at 10 µM (Homo sapiens [5]): 59%
10 | Cc1oc(-c2ccccc2)nc1COc1ccc(C(C)N(O)C(N)=O)cc1 (configuration not stated) |  | 17 | inhibition at 10 µM (Homo sapiens [5]): 57%
11 | NC(=O)N(O)Cc1ccc(OCCc2csc(-c3ccc(C(F)(F)F)cc3)n2)cc1 |  | 57 | inhibition in vivo at 5 mg/kg (Rattus norvegicus [8]): 0%
12 | NC(=S)N(O)Cc1cccc(OCc2coc(-c3ccc(F)cc3)n2)c1 | 0 | 61 | 
13 | NC(=O)N(O)Cc1ccc(OCc2coc(-c3ccccc3)n2)cc1 |  | 58 | inhibition in vivo at 5 mg/kg (Rattus norvegicus [8]): 60%; inhibition [3]: 60%
14 | NC(=O)N(O)Cc1ccc(OCc2csc(-c3ccc(Cl)cc3)n2)cc1 | 0 | 71 | 
15 | COc1ccc(-c2nc(CCOc3ccc(CN(O)C(N)=O)cc3)c(C)o2)cc1 |  | 57 | inhibition in vivo at 25 mg/kg (Rattus norvegicus [9]): 32%; Inhibition (Rattus norvegicus [6]): 38%
16 | CCCCCCc1nc(CCOc2ccc(CN(O)C(N)=O)cc2)c(C)o1 |  | 44 | 
17 | NC(=O)N(O)Cc1cccc(OCc2csc(-c3ccc(Cl)cc3)n2)c1 | 63 | 68 | inhibition [3]: 0%
18 | Cc1oc(-c2ccc(C(F)(F)F)cc2)nc1CCOc1ccc(CN(O)C(N)=O)cc1F |  | 36 | 
19 | COc1ccc(-c2nc(COc3ccc(CN(O)C(N)=O)cc3)cs2)cc1 | 69 | 56 | 
20 | Cc1oc(-c2ccc(C(F)(F)F)cc2)nc1COc1cc(F)cc(CN(O)C(N)=O)c1 |  | 15 | inhibition at 10 µM (Homo sapiens [5]): 85%
21 | COc1ccc(-c2nc(COc3cccc(CN(O)C(N)=O)c3)cs2)cc1 | 0 | 50 | 
22 | NC(=O)N(O)Cc1ccc(OCc2coc(-c3ccc(C(F)(F)F)cc3)n2)cc1 | 68 | 32 | 

Row | Structure (SMILES) | inhibition [4] [%] | inhibition at 1 µM (Homo sapiens [2]) [%] | other results
23 | CC(c1cc2ccccc2s1)N(O)C(N)=O (configuration not stated) [ZILEUTON] |  |  | ED50 (Cavia porcellus [1]): 19 mg/kg; IC50 (Homo sapiens [10]): 3000 nM; ED50 (Rattus norvegicus [11]): 10.2 mg/kg; ED50 (Rattus norvegicus [12]): 7.8 mg/kg; ED50 (Cavia porcellus [13]): 46 mg/kg
24 | Cc1oc(-c2ccccc2)nc1COc1ccc(CN(O)C(N)=O)cc1F |  | 47 | Inhibition (Rattus norvegicus [6]): 27%; inhibition [7]: 66%
25 | Cc1oc(-c2ccccc2)nc1CCOc1ccc(CN(O)C(N)=O)cc1 |  | 55 | inhibition in vivo at 25 mg/kg (Rattus norvegicus [9]): 79%; inhibition [3]: 69%; inhibition [7]: 0%
26 | Cc1oc(-c2ccccc2)nc1COc1cccc(C(C)N(O)C(N)=O)c1 (configuration not stated) |  | 10 | inhibition at 10 µM (Homo sapiens [5]): 80%
27 | Cc1oc(-c2ccc(C(F)(F)F)cc2)nc1CCOc1ccc(CN(O)C(N)=O)cc1 |  |  | inhibition in vivo at 1 mg/kg (Rattus norvegicus [14]): 57%; inhibition [7]: 67%; ED50 (Rattus norvegicus [12]): 5 mg/kg
28 | Cc1oc(-c2cc(C(F)(F)F)cc(C(F)(F)F)c2)nc1COc1cccc(CN(O)C(N)=O)c1 |  | 15 | inhibition at 10 µM (Homo sapiens [5]): 57%
29 | NC(=S)N(O)Cc1ccc(OCc2csc(-c3ccc(Cl)cc3)n2)cc1 |  | 57 | inhibition in vivo at 5 mg/kg (Rattus norvegicus [8]): 0%
30 | Cc1oc(-c2ccc(F)cc2)nc1COc1cccc(CN(O)C(N)=O)c1 |  | 74 | ED50 (Cavia porcellus [15]): 5 mg/kg; inhibition [3]: 37%
31 | NC(=O)N(O)Cc1ccc(OCc2csc(-c3ccccc3)n2)cc1 | 67 | 44 | 
32 | NC(=O)N(O)Cc1ccc(OCCc2coc(-c3ccccc3)n2)cc1 |  | 47 | inhibition in vivo at 5 mg/kg (Rattus norvegicus [8]): 0%
33 | Cc1oc(-c2cccc(F)c2)nc1CCOc1ccc(CN(O)C(N)=O)cc1 |  | 63 | inhibition [7]: 80%
34 | Cc1oc(-c2ccccc2)nc1CCOc1cccc(CN(O)C(N)=O)c1 |  | 51 | inhibition [7]: 0%
35 | NC(=O)N(O)Cc1ccc(OCCc2csc(-c3ccccc3)n2)cc1 |  | 19 | 
36 | Cc1ccc(-c2nc(CCOc3ccc(CN(O)C(N)=O)cc3)c(C)o2)cc1 |  | 40 | inhibition in vivo at 5 mg/kg (Rattus norvegicus [8]): 0%; Inhibition (Rattus norvegicus [6]): 48%
37 | Cc1oc(-c2ccc(F)cc2)nc1CCOc1ccc(CN(O)C(N)=O)cc1 |  | 70 | inhibition [7]: 66%
38 | Cc1oc(-c2ccccc2F)nc1CCOc1ccc(CN(O)C(N)=O)cc1 |  | 54 | inhibition [7]: 71%
39 | Cc1oc(-c2ccco2)nc1CCOc1ccc(CN(O)C(N)=O)cc1 |  | 64 | inhibition [7]: 41%
40 | Cc1oc(-c2ccccc2)nc1CCOc1cccc(C(C)N(O)C(N)=O)c1 (configuration not stated) |  | 34 | 
41 | NC(=O)N(O)Cc1ccc(OCc2csc(-c3ccc(C(F)(F)F)cc3)n2)cc1 | 0 | 56 | 
42 | NC(=O)N(O)Cc1cccc(OCCc2csc(-c3ccc(C(F)(F)F)cc3)n2)c1 | 0 | 30 | 
43 | NC(=O)N(O)Cc1ccc(OCCc2noc(-c3ccccc3)n2)cc1 |  | 70 | inhibition in vivo at 5 mg/kg (Rattus norvegicus [8]): 59%; Inhibition (Rattus norvegicus [6]): 19%
44 | Cc1oc(-c2ccccc2)nc1COc1cc(F)cc(CN(O)C(N)=O)c1 |  | 70 | inhibition in vivo at 5 mg/kg (Rattus norvegicus [8]): 52%; inhibition [3]: 16%

Second part, led by results:

Row | inhibition [4] [%] | Structure (SMILES) | inhibition at 1 µM (Homo sapiens [2]) [%] | other results
45 | 80 | NC(=O)N(O)Cc1cccc(OCc2csc(-c3ccccc3)n2)c1 | 66 | ED50 (Cavia porcellus [1]): 6 mg/kg; inhibition [3]: 40%
46 | 0 | Cc1oc(-c2ccccc2)nc1COc1cccc(CN(O)C(N)=O)c1 | 52 | inhibition in vivo at 25 mg/kg (Rattus norvegicus [9]): 78%; inhibition [3]: 33%; Inhibition (Rattus norvegicus [6]): 79%
47 | 0 | Cc1oc(-c2ccccc2)nc1COc1ccc(CN(O)C(N)=O)cc1 | 50 | inhibition [3]: 36%; Inhibition (Rattus norvegicus [6]): 69%; inhibition [7]: 84%
48 | 0 | Cc1oc(-c2ccc(SC(F)(F)F)cc2)nc1CCOc1ccc(CN(O)C(N)=O)cc1 | 50 | 
49 | 0 | Cc1oc(-c2cccc(C(F)(F)F)c2)nc1COc1cccc(CN(O)C(N)=O)c1 | 51 | 
50 | 38 | Cc1oc(-c2ccc(Cl)cc2)nc1COc1cccc(CN(O)C(N)=O)c1 | 77 | inhibition [3]: 47%
